Data reported in patent US8173693B2, “Benzenesulfonamide derivatives and pharmaceutical composition thereof” (Purzer Pharmaceutical Co., Ltd., priority 2010, dated 2012).
Entries after “also recorded” stand apart in the source; their conditions may differ.

Key:
[1] = tested on: Human hepatoblastoma HepG2 cells; assay: SRB assay; type: cell-based; conditions: 48 hr
[2] = tested on: Human breast carcinoma MCF-7 cells; assay: SRB assay; type: cell-based; conditions: MCF7, 48 hr
[3] = tested on: lung carcinoma A549 cells; assay: SRB assay; type: cell-based; conditions: Homo sapiens, 48 hr
[4] = tested on: lung carcinoma A549 cells; assay: In vitro migration assay (scratch); type: cell-based; conditions: 0, 0.5, or 10 μM, 18 hr, microscope images
Method: Lung carcinoma A549 cells (BCRC 60074; BCRC) were maintained in RPMI 1640 supplied with 10% fetal bovine serum and maintained in a humidified chamber at 37° C. containing 5% CO2. All the cell lines were developed for two generations every week.
In the in vitro migration assay, a scratch was mechanically made on the monolayer of cells to form a line-shaped scratch with cytological exfoliation. The scratch may lead the edge of the cell monolayer to close.
When the monolayered A549 cells were saturated, a scratch was made using a 200-μL tip directly on the monolayer of the A549 cells. Cells were then treated with GM119 with a concentration of 0, 0.5, or 10 μM. After incubation for 18 hr, all the migrations were tracked with a microscope.

[5] = tested on: 4T1-Luc cells; assay: In vivo evaluation, short-time treatment, mice implanted with 4T1-Luc cells
Method: GM119 (25 mg/kg) was applied to a mouse implanted with 4T1-Luc cells for a short time, and then Taxol (10 mg/kg) was applied thereto to observe the effect of GM119 on the 4T1-Luc cells.
A suspension of 4T1-Luc cells in matrigel was injected into the breast adipocyte to obtain mice implanted with luciferase tumor cells. […] When the size of the tumor cells was achieved to 200-500 mm^3, the mice were divided into 2 groups, and the number of the mice in each group is ≧5. Then, 0 or 25 mg/kg of GM119 was abdominal-injected into the mice for 5 days, wherein GM119 was dissolved in cremophor, and the volume of injection to each mouse is 50 μl. Then, 0 or 10 mg/kg of Taxol was abdominal-injected into the mice for every 2 days until death of the mice. The weight and the number of the mice were recorded every day to analyze the change on the weight and the survival time of the mice. After the drugs were applied to the mice, the size of the tumor cells in the mice was evaluated with bioluminescence every two days.

[6] = tested on: HUVECs (human umbilical vein endothelial cells); assay: In vitro tube formation assay (capillary formation, VEGF-induced); type: cell-based
Method: At day 1, HUVECs (human umbilical vein endothelial cells) cocultured with human fibroblasts were incubated in optimized medium and maintained in a humidified chamber at 37° C. containing 5% CO2. […] The cells were stimulated with VEGF (25 ng/mL) without or with GM119 (0.1, 1 or 10 μM). The media were replaced at days 3, 6, and 8. At day 11, the tube-like structures of the umbilical vein endothelial cells were observed by an anti-human CD31 antibody (Kurabo, Tokyo, Japan), and the area of the tube-like structures was analyzed.

[7] = tested on: Human hepatoblastoma HepG2 cells; assay: SRB assay; type: cell-based; conditions: 48 hr; remark: listed apart in the source
Method: (§1) Human Bladder Cancer TSGH cells, Human hepatoblastoma HepG2 cells, Human colorectal adenocarcinoma HT-29 cells, human nasopharyngeal carcinoma KB cells, Human gastric adenocarcinoma AGS cells, Human breast carcinoma MCF-7 cells, lung carcinoma A549 cells, and Human prostate carcinoma PC-3 cells were used in the preliminary cytotoxicity assays of the benzenesulfonamide derivatives of the present invention, and the inhibition activity against the tumor cells was evaluated.
(§2) All cell lines were maintained in RPMI 1640 supplied with 10% fetal bovine serum into 96-well microtiter plates and maintained in a humidified chamber at 37° C. containing 5% CO2. After 24 hr, cell lines in partial wells were fixed in situ with 10% trichloroacetic acid (TCA) to represent a measurement at the time of drug addition (T0). Then, cell lines in other wells were incubated with the benzenesulfonamide derivatives of the present invention for an additional 48 hr, and fixed in situ with 10% TCA to represent a measurement at the time of stopping reaction (Tx). After rinsing the plates with PBS and air-drying, 0.4% sulforhodamine B solution (weight per volume in 1% acetic acid) was added to each well and the plates were incubated for 10 min at room temperature. Unbound sulforhodamine B was removed with 1% acetic acid and the plates were air-dried. Cells bound with sulforhodamine B was subsequently solubilized with 10 mM Tris base (Trizma; Sigma). Cell proliferation was determined by measuring the optical density at 515 nm using a Thermomax microplate reader (Molecular Devices, Sunnyvale, Calif.). The half-inhibition concention (GI50) of the benzenesulfonamide derivatives of the present invention was obtained from the detected optical density.

[8] = tested on: Human prostate carcinoma PC-3 cells; assay: SRB assay; type: cell-based
Method: as §1, §2

[9] = tested on: Human colorectal adenocarcinoma HT-29 cells; assay: SRB assay; type: cell-based; conditions: 48 hr
Method: as §1, §2

[10] = tested on: Human gastric adenocarcinoma AGS cells; assay: SRB assay; type: cell-based; conditions: 48 hr
Method: as §1, §2

[11] = tested on: Human breast carcinoma MCF-7 cells; assay: SRB assay; type: cell-based; conditions: MCF7, 48 hr; remark: listed apart in the source
Method: as §1, §2

[12] = tested on: lung carcinoma A549 cells; assay: SRB assay; type: cell-based; conditions: Homo sapiens, 48 hr; remark: listed apart in the source
Method: as §1, §2

[13] = tested on: HeLa Cervical cancer; assay: MTT assay; type: cell-based; conditions: Homo sapiens, 72 hr
Method: (§3) All cell lines were maintained in RPMI 1640 supplied with 10% fetal bovine serum and maintained in a humidified chamber at 37° C. containing 5% CO2. Then, all cell lines were treated with compounds for 72 hr and subsequently incubated with 0.4 mg/mL of MTT at 37° C. for 2 hr. The medium was removed, and DMSO was added to dissolve MTT precipitate. Cell proliferation was determined by measuring the optical density at 540 nm using a Thermomax microplate reader (Molecular Devices, Sunnyvale, Calif.), and the IC50 values of the benzenesulfonamide derivatives of the present invention were calculated.

[14] = tested on: COLO-205 Colon cancer; assay: MTT assay; type: cell-based; conditions: Homo sapiens, 72 hr
Method: as §3

[15] = tested on: WSI Normal skin fibroblast; assay: MTT assay; type: cell-based
Method: as §3

[16] = tested on: WI-38 Normal lung fibroblast; assay: MTT assay; type: cell-based; conditions: Homo sapiens
Method: as §3

[17] = tested on: Human colorectal adenocarcinoma HT-29 cells; assay: SRB assay; type: cell-based; conditions: 48 hr; remark: listed apart in the source
[18] = tested on: tumor cells; assay: Preliminary cytotoxicity assays (MTT, SRB), tumor cell panel; type: cell-based; conditions: comparison over Tables 1-4
Method: as §1, §3
as §2, with “After rinsing the plates with PBS and air-drying, 0.4% sulforhodamine B solution (weight per volume in 1% acetic acid) was added to each well and the plates were incubated for 10 min at room temperature. Unbound sulforhodamine B was removed with 1% acetic acid and the plates were air-dried. Cells bound with sulforhodamine B was subsequently solubilized with 10 mM Tris base (Trizma; Sigma).” left out

COc1ccc(S(=O)(=O)Nc2cccc3c2[nH]c2c(C)ccc(C)c23)cc1 [Compound 6c, N-(5,8-Dimethyl-9H-carbazol-1-yl)-4-methoxybenzenesulfonamide]
IC50 [1]: 1000 nM | IC50 [2]: > 10000 nM | IC50 [3]: 10000 nM | inhibition on the migration of the A549 cells [4]: the inhibition on the migration of the A549 cells was greater as the concentration of the GM119 was increased | survival of the mice ([5]; short time: GM119 25 mg/kg abdominal-injected for 5 days, then Taxol 10 mg/kg every 2 days, FIG. 2): the survival of the mice can be greatly increased | growth of the tumor cells (bioluminescence) ([5]; short-time treatment, GM119 25 mg/kg, Taxol 10 mg/kg): the growth of the tumor cells can be inhibited | inhibition activity compared with suramin ([6]; 10 μM GM119 vs 10 μM suramin): almost equivalent to that of suramin | inhibition of formation of tube-like structures induced by VEGF ([6]; VEGF 25 ng/mL, GM119 0.1, 1 or 10 μM, day 11): can inhibit the formation of the tube-like structures | GI50 [7]: 70 nM | GI50 ([8]; 48 hr): 610 nM | GI50 ([8]; Homo sapiens, PC-3, 48 h): 500 nM | IC50 ([8]; Homo sapiens, PC-3, 48 hr): 1100 nM | GI50 [9]: 320 nM | GI50 [10]: 600 nM | GI50 [11]: 630 nM | GI50 [12]: 280 nM | IC50 [13]: 600 nM | IC50 [14]: 50 nM | IC50 [15]: > 10000 nM | IC50 [16]: > 10000 nM | IC50 [17]: 9000 nM | inhibitory activity against the tumor cells (in words) [18]: has the best inhibition activity; also recorded: has the highest inhibitory activity
